# In patent US5068064A, “N-substituted lauramides, their preparation and compositions in which they are present” (Sanofi, priority 1989, dated 1991):
# Columns and labels:
# [1] = test system: Escherichia coli CIP 54127; assay: Percentage of bactericidal active principle, second method (5 min contact), E. coli; format: cell-based; settings: destruction of 99.99%
# From the text: (§1) In the two methods, a bacterial inoculum is brought into contact with different dilutions of the product for a determined period of time.
# (§2) When the contact period has ended, an aliquot of the mixture of bacterial suspension and product is taken and brought into contact with an agent for neutralizing the bacterial activity of the mixture, either in a solid medium or in a liquid medium. The bactericidal activity of the product, expressed either as a concentration or as a percentage of active principle, corresponds to an absence of bacterial growth.
# (§3) The second method makes it possible to define a percentage of bactericidal or fungicidal active principle by means of a simplified and automated adaptation of Afnor standards NF T 72-150 and NF T 72-170. In this method, the bactericidal activity of the product is determined with and without interfering substances. It is based on assessing the destruction of 99.99% of the initial bacteria by the product in 5 minutes. The interfering substances are of the protein type and are chosen for the actual conditions of application of this type of product. The contact time between product and bacterial suspension is 5 minutes, the neutralization step is 10 minutes and subculture is effected in a liquid medium.
# (§4) The chosen bacterial strains are:
# (§5) 3. Escherichia coli CIP 54127
# (§6) The strains are maintained on Tryptic Soy Agar® (TSA) marketed by Difco.
# (§7) The strains are harvested in a manner identical to the first method; these suspensions contain between 1.10^8 and 3.10^8 cells per milliliter. Appropriate dilutions make it possible to have a suspension containing 2 to 6.10^3 cells per milliliter.
# (§8) The experiment is performed in microtiter plates; it comprises two steps. The first step, called the preliminary test, checks that the product is indeed neutralized. In the test proper, the different dilutions of the product are brought into contact with 2 to 6.10^3 cells per milliliter of the bacterial suspension in the second row of the microtiter plate. After a contact time of 5 minutes, an aliquot is transferred to the third row containing the neutralizer adapted to the product and to the strain. After a contact time of 10 minutes, aliquots are transferred to the last 5 rows containing Tryptic Soy Broth® (TSB) from Difco.
# (§9) The interfering substances tested are a mixture of albumin and yeast extract. In the first row of the microplate, these proteins are brought into contact for 5 minutes with the different dilutions of the product. After this step, the same principle as above is applied: 5 minutes of contact with the germ, 10 minutes of contact with the neutralizer, transfer to TSB.
# [2] = test system: Pseudomonas aeruginosa CIP A22; assay: Percentage of bactericidal active principle, second method (5 min contact), P. aeruginosa; format: cell-based; settings: destruction of 99.99%
# From the text: as §1, §2, §3, §4
# 4. Pseudomonas aeruginosa
# as §6, §7, §8, §9
# [3] = test system: Enterococcus faecium CIP 5855; assay: Percentage of bactericidal active principle, second method (5 min contact), E. faecium; format: cell-based; settings: destruction of 99.99%
# From the text: as §1, §2, §3, §4, §6, §7, §8, §9
# [4] = test system: S. aureus, E. faecium, E. coli, P. aeruginosa, C. albicans, M. smegmatis; assay: Second method, bactericidal and fungicidal activity over all strains (Table III); format: cell-based; settings: contact time 5 minutes
# From the text: as §1, §2
# The second method makes it possible to define a percentage of bactericidal or fungicidal active principle by means of a simplified and automated adaptation of Afnor standards NF T 72-150 and NF T 72-170. In this method, the bactericidal activity of the product is determined with and without interfering substances. It is based on assessing the destruction of 99.99% of the initial bacteria by the product in 5 minutes. The interfering substances are of the protein type and are chosen for the actual conditions of application of this type of product. […]
# The antifungal activity of the products according to the invention was also determined with and without interfering substances using the method described above. […]
# [5] = Product solubility
# [6] = test system: Staphylococcus aureus CIP 53154; assay: Minimum bactericidal concentration, first method (30 min contact), S. aureus; format: cell-based; settings: CIP53154, 0.5 h, contact time 30 minutes
# From the text: as §1, §2
# (§10) The first method makes it possible to define a minimum bactericidal concentration (MBC) or minimum fungicidal concentration (MFC), expressed in μg/ml. The contact time between product and bacterial suspension is 30 minutes. The neutralizer is included in agar.
# (§11) The CIP bacterial strains chosen for the study, which are available from the Institut Pasteur, are:
# (§12) 1. Staphylococcus aureus
# as §6
# (§13) After 24 hours of culture at 37° C., the microbial growth is harvested with the aid of glass beads and 10 ml of diluent containing 1 g of tryptone and 8.5 g of sodium chloride in 1000 ml of distilled water. The suspension formed is shaken and the percentage transmission of light at 620 nm is measured in a spectrophotometer:
# (§14) The bacterial inoculum corresponds to a 1:20 dilution of this bacterial suspension.
# (§15) Plates containing cupules receive different dilutions of the test product. These dilutions of the test product are brought into contact with the different bacterial suspensions using a multiple site inoculator. After a contact time of 30 minutes, aliquots are transferred with this inoculator to the surface of an agar medium (TSA) placed in Petri dishes containing an activity neutralizer, namely 20 g of lubrol W, 2.5 g of Tween 80, 2.5 g of sodium thiosulfate and 1% of egg yolk in 1000 ml of TSA (Difco). A control for the efficacy of the neutralizer is prepared for each test product by depositing an aliquot of the dilution of the test product on the surface of the culture medium. After drying, the corresponding inoculum is deposited in the same place. An inoculum control is prepared on agar medium with and without neutralizer. The results are read off after 48 hours of incubation at 37° C.
# (§16) They indicate the minimum bactericidal concentrations (MBC) for strains 1, 2, 3 and 4 and the minimum fungicidal concentrations (MFC) for strain 5.
# [7] = test system: Mycobacterium smegmatis CIP 7326; assay: Percentage of bactericidal active principle, second method (5 min contact), M. smegmatis; format: cell-based; settings: with proteins as interfering substances, destruction of 99.99%
# From the text: as §1, §2, §3, §4
# 5. Mycobacterium smegmatis
# as §6, §7, §8, §9
# [8] = test system: Escherichia coli CIP 54127; assay: Minimum bactericidal concentration, first method (30 min contact), E. coli; format: cell-based; settings: CIP54127, 0.5 h, contact time 30 minutes
# From the text: as §1, §2, §10, §11, §5, §6, §13, §14, §15, §16
# [9] = test system: Pseudomonas aeruginosa CIP A22; assay: Minimum bactericidal concentration, first method (30 min contact), P. aeruginosa; format: cell-based; settings: CIPA22, 0.5 h, contact time 30 minutes
# From the text: as §1, §2, §10, §11
# 4. Psuedomonas aeruginosa
# as §6, §13, §14, §15, §16
# [10] = test system: Candida albicans CIP 1180; assay: Percentage of fungicidal active principle, second method (5 min contact), C. albicans; format: cell-based
# From the text: as §1, §2, §3, §8, §9
# The antifungal activity of the products according to the invention was also determined with and without interfering substances using the method described above. The same strain was used as for the first technique, namely Candida albicans CIP 1180. It is harvested in an identical manner to that described in the first method.
# [11] = test system: Enterococcus faecium CIP 5855; assay: Minimum bactericidal concentration, first method (30 min contact), E. faecium; format: cell-based; settings: CIP5855, 0.5 h, contact time 30 minutes
# From the text: as §1, §2, §10, §11, §6, §13, §14, §15, §16
# [12] = test system: Candida albicans CIP 1180; assay: Minimum fungicidal concentration, first method (30 min contact), C. albicans; format: cell-based; settings: CIP1180, 0.5 h, contact time 30 minutes
# From the text: as §1, §2, §10, §15
# The antifungal activity of the products according to the invention was also determined using the method described above. A representative strain of yeast was selected for the study: Candida albicans CIP 1180 (strain 5).
# This is maintained on Sabouraud's Dextrose Agar marketed by Difco. The technique is identical to that described for studying the antibacterial activity. After 48 hours of culture at 37° C., the microbial growth is harvested with the aid of glass beads and 5 ml of diluent containing 1 g of tryptone and 8.5 g of sodium chloride in 1000 ml of distilled water; a further 5 ml of the diluent are then added. This suspension gives a percentage transmission of light at 620 nm of 2 to 3% in a spectrophotometer.
# The inoculum corresponds to a 1:10 dilution of this microbial suspension. A 1:100 dilution of this suspension, observed between slide and cover glass through a No. 40 microscope objective, must show 10 cells per field, which corresponds to 1,000,000 yeasts per ml.
# as §16
# [13] = test system: Staphylococcus aureus CIP 53154; assay: Percentage of bactericidal active principle, second method (5 min contact), S. aureus; format: cell-based; settings: destruction of 99.99%
# From the text: as §1, §2, §3, §4, §12, §6, §7, §8, §9
# [14] = test system: S. aureus, E. faecium, E. coli, P. aeruginosa, C. albicans; assay: First method, bactericidal and fungicidal activity over all strains (Table II); format: cell-based; settings: contact time 30 minutes
# From the text: as §1, §2, §10
# Plates containing cupules receive different dilutions of the test product. These dilutions of the test product are brought into contact with the different bacterial suspensions using a multiple site inoculator. […] The results are read off after 48 hours of incubation at 37° C.
# The antifungal activity of the products according to the invention was also determined using the method described above. […]
# [15] = Simple: without interfering substances
# [16] = with proteins as interfering substances
SMILES,"Bactericidal activity, results in percentage of active principle, E. coli [1, 15]","Bactericidal activity, results in percentage of active principle, E. coli [1, 16]","Bactericidal activity, results in percentage of active principle, P. aeruginosa [2, 15]","Bactericidal activity, results in percentage of active principle, P. aeruginosa [2, 16]","Bactericidal activity, results in percentage of active principle, E. faecium [3, 15]","Bactericidal activity, results in percentage of active principle, E. faecium [3, 16]",Ranking of activities among the products [4],solubility ([5]; water) [mg/mL],MBC [6] [µg/mL],"Bactericidal activity, results in percentage of active principle, M. smegmatis [7]",MBC [8] [µg/mL],MBC [9] [µg/mL],"Fungicidal activity, results in percentage of active principle, C. albicans [10, 15]","Fungicidal activity, results in percentage of active principle, C. albicans [10, 16]",MBC [11] [µg/mL],MFC [12] [µg/mL],"Bactericidal activity, results in percentage of active principle, S. aureus [13, 16]",Product solubility ([5]; in TEG (tetraethylene glycol)) [%],Ranking of MBC and MFC among the products [14],"Bactericidal activity, results in percentage of active principle, S. aureus ([13]; Simple: without interfering substances, * activity limited to the zone indicated)"
"CCCCCCCCCCCC(=O)NCCN(C)C [D1, reference compound]",0.05 percentage of active principle,0.1 percentage of active principle,0.05 percentage of active principle,0.5 percentage of active principle,0.01 percentage of active principle,0.1 percentage of active principle,the activities are the lowest,18,50,> 0.5 percentage of active principle,50,50,0.1 percentage of active principle,0.5 percentage of active principle,50,200,0.5 percentage of active principle,–,–,–
CCCCCCCCCCCC(=O)NCCCN1CCC(Cc2ccccc2)CC1 [SR 45320 A],0.01 percentage of active principle,0.05 percentage of active principle,0.005 percentage of active principle,> 0.5 percentage of active principle,< 0.001 percentage of active principle,0.1 percentage of active principle,–,–,10,0.05 percentage of active principle,10,10,0.005 percentage of active principle,0.05 percentage of active principle,10,10,0.05 percentage of active principle,1,lowest MBC and MFC,0.005 percentage of active principle
